Data as given in the NIST ThermoML archive (doi:10.1016/j.tca.2004.09.020).
Where “and” joins values, the source holds several entries; their conditions need not be identical. Equal entries are not always repeated. Numbers after ± are expanded uncertainties.

Assay: isobaric coefficient of expansion
Details: Gas, Pressure calorimetry

With `N#N` [nitrogen] the “isobaric coefficient of expansion” value (302.9 K, 15 kPa) was 0.004 ± 0.0001 1/K, the “isobaric coefficient of expansion” value (302.9 K, 30 kPa) was 0.0036 ± 0.0001 1/K and the “isobaric coefficient of expansion” value (302.9 K, 39.9 kPa) was 0.00322 ± 0.0001 1/K. For the same compound, the “isobaric coefficient of expansion” value (302.9 K, 60 kPa) was 0.00262 ± 8e-05 1/K, the “isobaric coefficient of expansion” value (302.9 K, 70 kPa) was 0.00243 ± 8e-05 1/K and the “isobaric coefficient of expansion” value (302.9 K, 80 kPa) was 0.00224 ± 7e-05 1/K. For the same compound, the “isobaric coefficient of expansion” value (302.9 K, 89.9 kPa) was 0.00209 ± 7e-05 1/K, the “isobaric coefficient of expansion” value (322.9 K, 13 kPa) was 0.0036 ± 0.0001 1/K and the “isobaric coefficient of expansion” value (322.9 K, 14 kPa) was 0.0036 ± 0.0001 1/K. For the same compound, the “isobaric coefficient of expansion” value (322.9 K, 15 kPa) was 0.0036 ± 0.0001 1/K, the “isobaric coefficient of expansion” value (322.9 K, 16 kPa) was 0.0036 ± 0.0001 1/K and the “isobaric coefficient of expansion” value (322.9 K, 18 kPa) was 0.0036 ± 0.0001 1/K. For the same compound, the “isobaric coefficient of expansion” value (322.9 K, 20 kPa) was 0.0036 ± 0.0001 1/K, the “isobaric coefficient of expansion” value (322.9 K, 30 kPa) was 0.00333 ± 0.0001 1/K and the “isobaric coefficient of expansion” value (322.9 K, 40 kPa) was 0.00303 ± 0.0001 1/K. The “isobaric coefficient of expansion” value (322.9 K, 60 kPa) was 0.0025 1/K and 0.00251 1/K, the “isobaric coefficient of expansion” value (322.9 K, 80 kPa) was 0.00212 ± 7e-05 1/K and the “isobaric coefficient of expansion” value (352.6 K, 14 kPa) was 0.00309 ± 0.0001 1/K. The “isobaric coefficient of expansion” value (352.6 K, 30 kPa) was 0.00297 1/K and 0.00299 1/K, the “isobaric coefficient of expansion” value (352.6 K, 40 kPa) was 0.0026 ± 0.0001 1/K and the “isobaric coefficient of expansion” value (352.6 K, 50 kPa) was 0.00252 ± 8e-05 1/K. For the same compound, the “isobaric coefficient of expansion” value (352.6 K, 60 kPa) was 0.00232 ± 8e-05 1/K, the “isobaric coefficient of expansion” value (352.6 K, 70 kPa) was 0.00217 ± 6.7e-05 1/K and the “isobaric coefficient of expansion” value (352.6 K, 80 kPa) was 0.002 ± 7e-05 1/K. For the same compound, the “isobaric coefficient of expansion” value (352.6 K, 90 kPa) was 0.00186 ± 6e-05 1/K, the “isobaric coefficient of expansion” value (422.2 K, 18 kPa) was 0.00244 ± 8e-05 1/K and the “isobaric coefficient of expansion” value (422.2 K, 22 kPa) was 0.00249 ± 8e-05 1/K. The “isobaric coefficient of expansion” value (422.2 K, 24 kPa) was 0.00248 ± 8e-05 1/K, the “isobaric coefficient of expansion” value (422.2 K, 26 kPa) was 0.00238 ± 8e-05 1/K and the “isobaric coefficient of expansion” value (422.2 K, 28 kPa) was 0.00236 ± 8e-05 1/K. The “isobaric coefficient of expansion” value (422.2 K, 30 kPa) was 0.00236 ± 8e-05 1/K, the “isobaric coefficient of expansion” value (422.2 K, 40 kPa) was 0.00225 ± 6e-05 1/K and the “isobaric coefficient of expansion” value (422.2 K, 50 kPa) was 0.00206 ± 6e-05 1/K. For the same compound, the “isobaric coefficient of expansion” value (422.2 K, 60 kPa) was 0.00194 ± 5e-05 1/K, the “isobaric coefficient of expansion” value (422.2 K, 70 kPa) was 0.00184 ± 6e-05 1/K and the “isobaric coefficient of expansion” value (422.2 K, 80 kPa) was 0.00177 ± 6e-05 1/K. For the same compound, the “isobaric coefficient of expansion” value (422.2 K, 90 kPa) was 0.00165 ± 6e-05 1/K.
